According to ChEMBL document CHEMBL4699506, “Polyhalogenation of Isoflavonoids by the Termite-Associated Actinomadura sp. RB99” (2020):

Legend:
Assay type in all cases: functional
Escherichia coli = assay: Antibacterial activity against Escherichia coli assessed as reduction in bacterial growth after 24 hrs by two-fold serial dilution method
[1] = test system: Staphylococcus epidermidis; assay: Antibacterial activity against Staphylococcus epidermidis assessed as reduction in bacterial growth after 24 hrs by two-fold serial dilution method
Candida albicans = assay: Antifungal activity against Candida albicans assessed as reduction in […] by two-fold serial dilution method
Helicobacter pylori = assay: Antibacterial activity against Helicobacter pylori 51 assessed as reduction in microbial growth after 24 hrs by two-fold serial dilution method

Structure (SMILES) | MIC (Escherichia coli) [µg/mL] | MIC [1] [µg/mL] | MIC (Candida albicans) [µg/mL] | MIC (Helicobacter pylori) [µg/mL] | MIC50 (Helicobacter pylori) [µg/mL]
O=c1c(-c2ccc(O)cc2)coc2c(Cl)c(O)c(Cl)c(O)c12 | > 50 | > 50 | > 50 |  | 
O=c1c(-c2cc(Br)c(O)c(Br)c2)coc2c(Br)c(O)ccc12 |  |  |  | 35.1 | 6.9
O=c1c(-c2ccc(O)cc2)coc2c(Cl)c(O)c(O)c(Cl)c12 | > 50 | > 50 | > 50 |  | 
O=c1c(-c2cc(Br)c(O)c(Br)c2)coc2c(Br)c(O)c(Br)c(O)c12 |  |  |  | 58.1 | 14.5
O=c1c(-c2cc(Cl)c(O)c(Cl)c2)coc2c(Cl)c(O)c(Cl)cc12 | > 50 | > 50 | > 50 |  | 
Cc1ncc([N+](=O)[O-])n1CCO [METRONIDAZOLE] |  |  |  | 4.3 | 11.8
O=c1c(-c2cc(Cl)c(O)c(Cl)c2)coc2cc(O)ccc12 | > 50 | > 50 | > 50 |  | 
O=c1c(-c2cc(Cl)c(O)c(Cl)c2)coc2c(Cl)c(O)c(Cl)c(O)c12 | > 50 | > 50 | > 50 |  | 
COc1cc2c(=O)c(-c3cc(Cl)c(O)c(Cl)c3)coc2cc1O | > 50 | > 50 | > 50 |  | 
COc1cc2c(=O)c(-c3cc(Cl)c(O)c(Cl)c3)coc2c(Cl)c1O | > 50 | > 50 | > 50 |  | 
COc1cc2occ(-c3cc(Cl)c(O)c(Cl)c3)c(=O)c2cc1OC | > 50 | > 50 | > 50 |  | 
